Experimental data taken from patent US5814512A, “Microorganism having all the identifying characteristics of absida ferm BP-4599 for producing purpurogallin derivatives” (Hoffmann-La Roche Inc., priority 1994, dated 1998).

What was measured:
[1] = Acute toxicity; conditions: in vivo
[2] = target: T1, catecholamine-O-methyltransferase (COMT), human liver enzyme (Homo sapiens, UniProt P21964); experiment: COMT inhibitory activity (O-methylation of 1,2-dihydroxybenzene with S-adenosyl-L-[methyl-3H]methionine, crude human liver enzyme); format: biochemical; conditions: COMT inhibition; crude enzyme from human liver (8.3 μg protein); pH 8.0; 37° C., 30 minutes; 100 μM 1,2-dihydroxybenzene
T1 construct: prepared from human liver; from tissue; host or cells: human liver, crude enzyme
T1 sequence (P21964 1-221 isoform P21964-2): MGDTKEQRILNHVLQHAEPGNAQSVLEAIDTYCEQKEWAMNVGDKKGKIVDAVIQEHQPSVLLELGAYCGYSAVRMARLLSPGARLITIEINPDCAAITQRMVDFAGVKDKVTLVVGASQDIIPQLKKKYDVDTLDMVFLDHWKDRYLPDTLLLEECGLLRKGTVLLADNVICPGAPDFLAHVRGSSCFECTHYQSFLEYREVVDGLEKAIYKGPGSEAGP
Experimental: The assay mixture (120 μl) in a mini scintillation vial contained 68 mM K-PO4 buffer (pH 8.0), 10 mM MgCl2, 2.2 mM dithiothreitol, 7.8 U/ml adenosine deaminase, 5 mM EGTA, 100 μM 1,2-dihydroxybenzene, 183 μM S-adenosyl-L-[methyl-^3 H] […] Ci/mol, Amersham) and human liver enzyme. In the standard assay, 5 μl of inhibitor was added to the incubation mixture and the reaction was started with the supplementation of crude enzyme (8.3 μg protein) prepared from human liver. After incubation at 37° C. for 30 minutes, the reaction was stopped by immersion of the vials in ice water. 100 μl of 1M guaiacol HCl was added and the samples were extracted with 2 ml of a scintillation cocktail of hexane/toluene (4:1). The radioactivity of O^3 H-methylated products were measured by a liquid scintillation counter (LSC1100, Aloka).

[3] = Solubility; format: physicochemical

Compound: COc1c(O)cc2cc(C(=O)O)cc(O)c(=O)c2c1O [8-O-methylpurpurogallincarboxylic acid]
- Acute toxicity [1]: not observed
- IC50 [2]: 2230 nM
- Solubility ([3]; in Dimethylsulfoxide (DMSO)): Soluble
- Solubility ([3]; in H2 O): Slightly soluble
- Solubility ([3]; in Methanol): Soluble

Compound: CCCOC(=O)c1cc(O)c(O)c(O)c1 [Propyl gallate]
- IC50 [2]: 455 nM

Compound: O=c1cccccc1O [Tropolone]
- IC50 [2]: 963000 nM
